System: Vaccinia virus
Test: Antiviral activity against Vaccinia virus infected in human skin fibroblasts assessed as inhibition of virus-induced cytopathogenicity
Format: functional, Orthopoxvirus vaccinia

SMILES	ID50
N#Cc1cn([C@@H]2O[C@H](CO)[C@@H](O)[C@H]2O)c(=O)[nH]c1=O	>7 ×10⁻⁴ M
N#Cc1cn([C@H]2C[C@H](O)[C@@H](CO)O2)c(=O)[nH]c1=O	2.7 ×10⁻⁵ M
O=c1[nH]c(=O)n([C@H]2C[C@H](O)[C@@H](CO)O2)cc1Br [BROXURIDINE]	6.5 ×10⁻⁷ M
O=c1[nH]c(=O)n([C@H]2C[C@H](O)[C@@H](CO)O2)cc1Cl [CHLORODEOXYURIDINE]	1.5 ×10⁻⁶ M
O=c1[nH]c(=O)n([C@H]2C[C@H](O)[C@@H](CO)O2)cc1F [FLOXURIDINE]	4 ×10⁻⁷ M
O=c1[nH]c(=O)n([C@H]2C[C@H](O)[C@@H](CO)O2)cc1I [IDOXURIDINE]	1.1 ×10⁻⁶ M
O=c1[nH]c(=O)n([C@H]2C[C@H](O)[C@@H](CO)O2)cc1C(F)(F)F [TRIFLURIDINE]	1.3 ×10⁻⁶ M
Nc1ncnc2c1ncn2[C@@H]1O[C@H](CO)[C@@H](O)[C@@H]1O [VIDARABINE]	2.6 ×10⁻⁵ M
